Assay results from PMC10426190 (Breast Cancer Research : BCR, 2023).
Where two headings read alike, the source gives them in different places.

Tests used:
uterine tissue = assay: Assessment of uterotropic activity in juvenile rats; assay type: in vivo, rat; details: juvenile SD rats, oral QD x 3 days; tamoxifen 60 mg/kg, SCR-6852 10 mg/kg; vs vehicle
Procedure: Twenty-four hours after the final dose, all animals were euthanized. Body weights and wet uterine weights were recorded for each animal. Fresh uterine tissue from each rat was fixed in 4% paraformaldehyde, dehydrated by HistoCore PEARL (Leica), and embedded by HistoCore Arcadia H + HistoCore Arcadia C (Leica). Sections were cut at 4 μm and stained with 0.1% toluidine blue O. The thickness of endometrial epithelium was measured using Leica Aperio CS2 with ImageScope × 64 program (Leica). The mean of five measurements per specimen was calculated.
MCF7 with hormone-deprived pre-treatment were administrated ER ligands or not present with 1 nM E2 stimulation for 24 h incubation in a 12-well plate. Total mRNA was isolated from treated cells and sequenced on an Illumina HiSeq X Ten platform. FPKM of each gene was calculated using Cufflinks and Differential expression genes analysis by using the DESeq (2012) R package. Four separate clusters were obtained. […] T47D EFM-19 and HCC1500 cells were grown in RPMI media supplemented with 10% charcoal-stripped FBS for 14 days and then treated with ER antagonist (1 μM) or DMSO in the presence E2 (1nM) stimulation for 24 h before RNA isolation and gene expression analysis as described in methods. […] Endometrial height was assessed from the basement membrane to the luminal border (scale bar in green lines: 200 μm), Arrows indicate the uterine epithelium (e).

breast cancer = system: breast cancer; set-up: method as in PMID 28149048; details: cited from earlier work
[1] = Brain distribution study in mice; details: oral 10 mg/kg once a day (fulvestrant 250 mg/kg sc once per week), 24 h post last dose
Procedure: The blood and brain tissues were collected at 24 h post the last dose. […] All blood was collected in K2-EDTA tubes and plasma was obtained by centrifuging the blood at 3200 rpm for 10 min at 4 °C and the brain was rinsed with water and blotted to remove superficial meninges. Plasma and brain samples were stored at − 80 °C until LC–MS/MS analysis which was performed on an Acquity UPLC system (Waters, USA) coupled to an AB SCIEX Triple Quad 6500 + System.
Brain conc./plasma conc. was presented as a B/P ratio

intracranial tumor = details: cited from earlier work
[2] = system: ER+ breast cancer, WT or mutant ESR1; set-up: method as in EMERALD (NCT03778931), ASCO, 2022; details: ASCO, 2022, cited from earlier work
MCF-7 WT cells = assay: Viability assay (CellTiter-Glo, 7 days), MCF-7 WT; assay type: cell-based, human
Procedure: (§1) Trypsinized cells were dispensed into 384-well plates in culture media and after overnight incubation cells were treated with compounds for 7 days. Cell viability was assessed using CellTiter-Glo (Promega) according to the manufacturer’s protocol and relative luminescence units (RLU) were measured using an Envision Multilabel Reader (Perkin Elmer). […] IC50 and Imax were analyzed with IDBS XLfit.
(§2) Statistical and graphical presentations were performed using IDBS XLfit and GraphPad Prism 9. For cell proliferation assays, the IC50 was calculated by fitting a dose–response curve using a nonlinear regression model with a log(inhibitor) vs response curve fit. […] P-values < 0.05 were considered statistically significant.

ERα [3] = target: T1, ERα (Homo sapiens, UniProt P03372); assay: ERα degradation assay, In-Cell Western, MCF-7 WT; assay type: cell-based; set-up: MCF-7 wild type and Y537S mutant cells were seeded at a density of 5000 cells per well; host or cells: MCF-7; details: 24 h
T1 sequence (P03372 1-595): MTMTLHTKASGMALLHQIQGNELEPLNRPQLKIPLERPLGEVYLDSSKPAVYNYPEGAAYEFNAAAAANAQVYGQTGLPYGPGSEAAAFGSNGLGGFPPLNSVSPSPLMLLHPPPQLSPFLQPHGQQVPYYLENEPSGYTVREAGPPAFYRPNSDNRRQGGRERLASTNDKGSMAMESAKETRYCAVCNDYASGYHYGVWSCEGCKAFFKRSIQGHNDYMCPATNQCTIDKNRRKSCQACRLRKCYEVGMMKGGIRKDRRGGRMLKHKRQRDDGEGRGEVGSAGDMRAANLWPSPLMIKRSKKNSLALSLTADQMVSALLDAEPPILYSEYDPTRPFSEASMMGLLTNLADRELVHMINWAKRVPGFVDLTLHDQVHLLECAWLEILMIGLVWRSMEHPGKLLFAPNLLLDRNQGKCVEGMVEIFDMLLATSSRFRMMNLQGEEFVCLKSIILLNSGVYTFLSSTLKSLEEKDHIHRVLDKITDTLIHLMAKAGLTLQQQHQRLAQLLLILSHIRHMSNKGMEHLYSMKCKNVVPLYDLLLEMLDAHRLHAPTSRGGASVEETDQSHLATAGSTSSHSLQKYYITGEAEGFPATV
Procedure: MCF-7 wild type and Y537S mutant cells were seeded at a density of 5000 cells per well into flat clear bottom tissue cultured-treated 384-well plates (Greiner) in culture media and after overnight incubation cells were treated with compounds for 24 h. Then plates were fixed with 4% formaldehyde, permeabilized with ice-cold methanol, and blocked with Odyssey Blocking Buffer (LI-COR). The fixed cells were incubated with rabbit anti- ERα antibody (CST#8644S) and mouse anti-GAPDH antibody (Abcam #ab8245), washed and stained with IRDye 800 Goat anti-Rabbit IgG (Licor#926-32211) and IRDye 680 Goat anti-Mouse IgG (Licor#926-68070). ERα levels were quantitated using Sapphire RGBNIR (Azure), the acumen eX3 imaging system. […] IC50 and Emax were analyzed with IDBS XLfit.
(§3) MCF7 cells were seeded in a 384-well plate and linear-dilution compounds were administrated in duplicate for each treatment. After incubation for 24 h, Cells in the assay pate were treated as described in methods. ERα levels were quantified by immunofluorescence assay. […] Cells were dispended into 96-well plates and incubated for 24 h with compounds (100 nM) treatment. […] Cells were seeded in 384-well plates and treated with linear-dilution compounds for 7 days of incubation. Cell viability was assessed using CellTiter-Glo. Cell growth inhibition is presented as a percentage of CellTiterGlo activity relative to the vehicle control. […] Then cells in each well were collected and the targeting proteins in lysate supernatant were detected by WB
Cells were seeded at a density of 5,000 cells per well into 384-well plates and treated with linear-titration compounds in duplicate for 24 hours. ERα levels were quantified by immunofluorescence assay as described in the method. The detection signals were captured by Odyssey.

ERα [4] = target: T1, ERα; assay: Maximal ERα degradation across ER-positive cell panel, In-cell Western, 100 nM; assay type: cell-based; details: 24 h, EFM-19, CAMA-1, HCC1500, T47D, BT-474
Procedure: as §3

[5] = system: ER + breast cancer cell lines; assay: Proliferation assay across ER-positive cell panel; assay type: cell-based, human; details: CAMA-1 and HCC1500, 7 days
Procedure: as §1
MCF7 cells were seeded in a 384-well plate and linear-dilution compounds were administrated in duplicate for each treatment. After incubation for 24 h, Cells in the assay pate were treated as described in methods. ERα levels were quantified by immunofluorescence assay. […] Data are given as mean ± SEM. b The maximal ERα degradation across an ER-positive cell panel was evaluated in an In-cell Western assay. Cells were dispended into 96-well plates and incubated for 24 h with compounds (100 nM) treatment. […] Cells were seeded in 384-well plates and treated with linear-dilution compounds for 7 days of incubation. Cell viability was assessed using CellTiter-Glo. Cell growth inhibition is presented as a percentage of CellTiterGlo activity relative to the vehicle control. […] WT (e) and ER. Y537S cells (f). […] Then cells in each well were collected and the targeting proteins in lysate supernatant were detected by WB

[6] = set-up: method as in PMID 26149830; details: mice, 30 mg/kg, approximately 12 h ref 38; cited from earlier work
[7] = system: MCF-7 subcutaneous tumors; assay: MCF-7 subcutaneous xenograft, combination with Palbociclib; assay type: in vivo, mouse; details: MCF-7 sc, Palbociclib 40 mg/kg monotherapy
Procedure: Female Balb/c nude mice were used for MCF-7 and T47D tumor subcutaneous xenograft studies. At least one day before tumor cell implantation, estrogen pellets (0.18 mg, 17β-Estradiol, 60-day release, Innovative Research of America, Sarasota, FL, USA) were implanted subcutaneously. Each mouse was subcutaneously injected with 1 × 10^7 MCF-7 (ECACC) or T47D cells in the right flank, and tumor growth was monitored. The long diameter (a) and the short diameter (b) of the tumor were measured using a caliper, and the tumor volume was calculated using the following formula: V = 0.5 × a × b^2. […] Tumor volumes were evaluated twice per week. Treatment tolerability was assessed by body weight measurements and frequent observation for clinical signs of treatment-related adverse effects.
as §2
Cell viability was measured using Cell TiterGlo assay. […] The result of one representative assay from three similar independent experiments is shown.

[8] = set-up: method as in PMID 30018387; details: cited from earlier work

CC/C(=C(\c1ccccc1)c1ccc(OCCN(C)C)cc1)c1ccccc1 [Tamoxifen]
endometrial epithelial thickness (uterine tissue): significantly increased | relative uterine wet weight (uterine tissue): significant increase | reduction of annual mortality rate (breast cancer): 31% | reduction of breast cancer recurrence (breast cancer): 50%

C[C@@H]1Cc2c([nH]c3ccccc23)[C@@H](c2c(F)cc(NC3CN(CCCF)C3)cc2F)N1CC(F)(F)CO [GDC-9545]
B/P ratio [1]: less than onefold

CCNCCc1ccc(CN(CC)c2cc(OC)ccc2[C@@H]2CCc3cc(O)ccc3C2)cc1 [Elacestrant]
animals survived to the end of the study (intracranial tumor; day 54 ref 41): 43% | B/P ratio (intracranial tumor; intracranial tumor, according to reported data ref 41): about 0.6 | PFS rate at 12 months ([2]; ESR1 mutation population ref EMERALD (NCT03778931)): 26.76% | reduction of the risk of disease progression or death ([2]; all patients ref EMERALD (NCT03778931)): 30% | PFS rate at 12 months ([2]; overall population ref EMERALD (NCT03778931)): 22.32% | reduction of the risk of disease progression or death ([2]; patients with ESR1 mutation ref EMERALD (NCT03778931)): 45%

CC1Cc2cc(B(O)O)ccc2C(c2c(F)cc(NC3CN(CCCF)C3)cc2F)N1CC1(F)CC1 (centres unmarked) [SCR-6515]
IC50 (MCF-7 WT cells): 0.29 nM | Viability assay Emax [% Ful.] (MCF-7 WT cells): 103.00 % Ful. | Viability assay Emax [% Veh.] (MCF-7 WT cells): 64.15 % Veh. | DC50 (ERα [3]): 0.08 nM | ERα degradation assay Dmax [% Ful.] (ERα [3]): 97.83 % Ful. | ERα degradation assay Dmax [% Veh.] (ERα [3]): 66.81 % Veh.

C[C@@H]1Cc2c([nH]c3ccccc23)[C@@H](c2c(F)cc(/C=C/C(=O)O)cc2F)N1CC(C)(C)F [AZD9496]
maximal ERα degradation rate across ER + cell lines (ERα [4]): less potency ERα degradation rate | maximal anti-proliferation rate [5]: lower maximal anti-proliferation rate

C[C@@H]1Cc2c(ccc3[nH]ncc23)[C@@H](c2ccc(NC3CN(CCCF)C3)cn2)N1CC(F)(F)F [AZD-9833]
B/P ratio [1]: less than onefold

CCN1CCN(Cc2ccc(Nc3ncc(F)c(-c4cc(F)c5nc(C)n(C(C)C)c5c4)n3)nc2)CC1 [Abemaciclib]
target engagement ratio (unbound brain concentration to in vitro enzyme IC50) [6]: 3.3–14.3

CC(=O)c1c(C)c2cnc(Nc3ccc(N4CCNCC4)cn3)nc2n(C2CCCC2)c1=O [Palbociclib]
TGI [7]: 66.34%

Nc1cc(C(F)(F)F)c(-c2cc(N3CCOCC3)nc(N3CCOCC3)n2)cn1 [Buparlisib]
B/P ratio [8]: > 1.5
